Source: patent publication US20130096305A1, “[…] […]” (priority 2010, published 2013)
pEC50: −log10 of the molar value.

Tested on: HIV-1 LAI envelope single-round infectious reporter virus
Assay: Single-round infectious luciferase reporter virus infection of MT2 cells
Type: cell-based
Conditions: Human immunodeficiency virus 1, MT2, 72 h
Excerpt: • Virus production—Human embryonic Kidney cell line, 293T (HEK 293T), was propagated in Dulbecco's Modified Eagle Medium (Invitrogen, Carlsbad, Calif.) containing 10% fetal Bovine serum (FBS, Sigma, St. Louis, Mo.). The human T-cell leukemia cell MT2 (AIDS Research and Reference Reagent Program, Cat. 237) was propagated in RPMI 1640 (Invitrogen, Carlsbad, Calif.) containing 10% fetal bovine serum (FBS, Hyclone, Logan, Utah) • Virus infection—Single-round infectious reporter virus was produced by co-transfecting HEK 293T cells with plasmide expressing the HIV-1 LAI envelope along with a plasmid containing an HIV-1 LAI proviral cDNA with the envelope gene replaced by a firefly luciferase reporter gene (Chen et al, Ref 41). Transfections were performed using lipofectAMINE PLUS reagent as described by the manufacturer (Invitrogen, Carlsbad, Calif.).
• 1. MT2 cells were plated in black, 384 well plates at a cell density of 5×10^3 cells per well in 25 μl RPMI 1640 containing 10% FBS. • 2. Compound (diluted in dimethylsulfoxide and growth medium) was added to cells at 12.5 μl/well, so that the final assay concentration would be ≦50 nM. • 3. 12.5 μl of single-round infectious reporter virus in Dulbecco's Modified Eagle Medium was added to the plated cells and compound at an approximate multiplicity of infection (MOI) of 0.01, resulting in a final volume of 50 μl per well. • 4. Virus-infected cells were incubated at 37 degrees Celsius, in a CO2 incubator, and harvested 72 h after infection. • 5. Viral infection was monitored by measuring luciferase expression in the infected cells using a luciferase reporter gene assay kit (Steady-Glo, Promega, Madison, Wis.) as described by the manufacturer. Luciferase activity was then quantified by measuring luminescence using an EnVision Multilabel Plate Readers (PerkinElmer, Waltham, Mass.). • 6. The percent inhibition for each compound was calculated by quantifying the level of luciferase expression in cells infected in the presence of each compound as a percentage of that observed for cells infected in the absence of compound and subtracting such a determined value from 100. • 7. An EC50 provides a method for comparing the antiviral potency of the compounds of this disclosure. The effective concentration for fifty percent inhibition (EC50) was calculated with the Microsoft Excel Xlfit curve fitting software. For each compound, curves were generated from percent inhibition calculated at 10 different concentrations by using a four paramenter logistic model (model 205).

| Structure (SMILES) | pEC50 |
| --- | --- |
| [2H]c1c([2H])c([2H])c(C(=O)N2C([2H])([2H])C([2H])([2H])N(C(=O)C(=O)c3c[nH]c4c(OC)ncc(OC)c34)C([2H])([2H])C2([2H])[2H])c([2H])c1[2H] [Compound 0001] | 9.17 |
| [2H]c1c([2H])c([2H])c(C(=O)N2CCN(C(=O)C(=O)c3c[nH]c4c(OC)ncc(OC)c34)CC2)c([2H])c1[2H] [Compound 0002] | 9.20 |
| [2H]C1([2H])N(C(=O)C(=O)c2c[nH]c3c(OC)ncc(OC)c23)C([2H])([2H])C([2H])([2H])N(C(=O)c2ccccc2)C1([2H])[2H] [Compound 0003] | 9.26 |
| [2H]c1c([2H])c([2H])c(C(=O)N2C([2H])([2H])C([2H])([2H])N(C(=O)C(=O)c3c[nH]c4c(-n5ccnn5)ncc(OC)c34)C([2H])([2H])C2([2H])[2H])c([2H])c1[2H] [Compound 0004] | 10.00 |
| [2H]c1c([2H])c([2H])c(C(=O)N2CCN(C(=O)C(=O)c3c[nH]c4c(-n5ccnn5)ncc(OC)c34)CC2)c([2H])c1[2H] [Compound 0005] | 9.62 |
| [2H]C1([2H])N(C(=O)C(=O)c2c[nH]c3c(-n4ccnn4)ncc(OC)c23)C([2H])([2H])C([2H])([2H])N(C(=O)c2ccccc2)C1([2H])[2H] [Compound 0006] | 10.10 |
| [2H]c1c([2H])c([2H])c(C(=O)N2C([2H])([2H])C([2H])([2H])N(C(=O)C(=O)c3c[nH]c4c(-n5ccnn5)ncc(F)c34)C([2H])([2H])C2([2H])[2H])c([2H])c1[2H] [Compound 0007] | 9.96 |
| [2H]c1c([2H])c([2H])c(C(=O)N2CCN(C(=O)C(=O)c3c[nH]c4c(-n5ccnn5)ncc(F)c34)CC2)c([2H])c1[2H] [Compound 0008] | 10.00 |
| [2H]C1([2H])N(C(=O)C(=O)c2c[nH]c3c(-n4ccnn4)ncc(F)c23)C([2H])([2H])C([2H])([2H])N(C(=O)c2ccccc2)C1([2H])[2H] [Compound 0009] | 9.85 |
| [2H]c1c([2H])c([2H])c(C(=O)N2C([2H])([2H])C([2H])([2H])N(C(=O)C(=O)c3c[nH]c4c(-n5cnc(C)n5)ncc(OC)c34)C([2H])([2H])C2([2H])[2H])c([2H])c1[2H] [Compound 0010] | 10.22 |
| [2H]c1c([2H])c([2H])c(C(=O)N2CCN(C(=O)C(=O)c3c[nH]c4c(-n5cnc(C)n5)ncc(OC)c34)CC2)c([2H])c1[2H] [Compound 0011] | 9.92 |
| [2H]C1([2H])N(C(=O)C(=O)c2c[nH]c3c(-n4cnc(C)n4)ncc(OC)c23)C([2H])([2H])C([2H])([2H])N(C(=O)c2ccccc2)C1([2H])[2H] [Compound 0012] | 10.15 |
